The text below walks through data of US12344606B2, “Next-generation modulators of stimulator of interferon genes (STING)” (RYVU THERAPEUTICS S.A., priority 2019, dated 2025).

In experiment [1] the test system is NF-κB pathway in THP-1 dual cells. Put plainly: THP-1 Dual reporter assay, NF-κB pathway (SEAP). The format is cell-based. Conditions: Homo sapiens, THP1-Dual; 18 h stimulation, absorbance; read-out: THP1 Dual EC50 (μM) NFkB. An outline of the steps: (§1)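 THP-1 dual reporter cells stimulated 18 h with STING agonist; culture medium then sampled. IRF activity read as ISG54/ISRE-driven luciferase luminescence; NF-κB activity read as SEAP absorbance at 630 nm (or 655 nm) after 2 h (or 1 h) at 37° C with detection medium.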
A general note: Reporter assays use an easily measured gene product as a stand-in for the process of interest.

Experiment [2] addresses human STING (Homo sapiens, UniProt Q86WV6). Put plainly: Fluorescence Thermal Shift assay (hSTING FTS binding assay). Particulars: STING 0.1 mg/ml, 20 min preincubation, SyproOrange. The method, boiled down:
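STING protein (final 0.1 mg/ml) preincubated 20 min with compound in 50 mM Hepes, 150 mM NaCl, pH 7.5, then SyproOrange dye added. Thermal unfolding monitored by fluorescence from 25 to 99° C. at a continuous ramp of 0.033° C./s.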

For experiment [3], the system named is interferon regulatory factor (IRF) pathway in THP-1 dual cells. Put plainly: THP-1 Dual reporter assay, IRF pathway (luciferase). Conditions: Homo sapiens, THP1-Dual; 18 h stimulation, luminescence. It is filed as cell-based. An outline of the steps: as §1
Experiment [4] deals with CT26 murine colon carcinoma allografts. Put plainly: In vivo anti-tumor efficacy in CT26 allografts. Also on record: species or system female Balb/C mice. Conditions: for efficacy of dose: once every fifth day x3, 10% Captisol in PBS. How it is done:
The efficacy of Example 1 was evaluated in established CT26 murine colon carcinoma allografts in female Balb/C mice. Example 1 was formulated in 10% Captisol in PBS and administered intravenously, once every fifth day on three occasions. The solution was prepared fresh prior to each administration. […] In both treatment groups tumor growth delay was observed when compared to the control group. By the end of the study, on day 42, there were 3 and 6 complete responses recorded for mice treated at 2 and 3 mg/kg E5Dx3, respectively.

Experiment [5] has as its system CT26 cells. Briefly: CT26 re-challenge study of mice with complete responses. It is filed as in vivo, Balb/C mice. The method, then:
Mice with complete responses were subjected to a re-challenge study. CT26 cells were injected into the flank opposite to an original site of inoculation. Naïve mice were included into the re-challenge study as a control of the tumor growth kinetics.

Broadly, the EC50 is the concentration that produces a half-maximal response.

Chain of human STING (Q86WV6 whole entry H232R): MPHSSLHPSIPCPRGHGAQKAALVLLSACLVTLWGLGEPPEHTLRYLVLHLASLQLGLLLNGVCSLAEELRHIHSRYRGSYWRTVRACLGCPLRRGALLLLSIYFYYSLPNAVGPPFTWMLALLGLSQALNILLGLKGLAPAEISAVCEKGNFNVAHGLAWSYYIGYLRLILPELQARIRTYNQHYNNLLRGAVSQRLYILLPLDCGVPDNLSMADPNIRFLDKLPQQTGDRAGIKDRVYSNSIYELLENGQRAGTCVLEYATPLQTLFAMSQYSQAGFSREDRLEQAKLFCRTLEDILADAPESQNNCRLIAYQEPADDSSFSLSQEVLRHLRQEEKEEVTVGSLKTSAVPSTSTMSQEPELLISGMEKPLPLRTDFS

Regarding `Cc1cc(CN(Cc2c[nH]c3ccccc3c2=O)[C@H]2CCCN(c3cccnc3)C2)ccn1` [Example 35, 3-({[(2-methylpyridin-4-yl)methyl][(3S)-1-(pyridin-3-yl)piperidin-3-yl]amino}methyl)-1,4-dihydroquinolin-4-one], the EC50 was 1 to 10 µM in experiment [1] and no more than 1 µM in experiment [3]. In addition, the “hSTING FTS binding assay (ΔT C.°)” value in experiment [2] was “++ (ΔTm>10° C.)”.
The like results for `Cn1cc(CN(Cc2ccns2)[C@H]2CCCN(c3cccnc3)C2)c(=O)c2ccccc21` [Example 55, 1-methyl-3-({[(3S)-1-(pyridin-3-yl)piperidin-3-yl][(1,2-thiazol-5-yl)methyl]amino}methyl)-1,4-dihydroquinolin-4-one] were, in that order, no less than 10 µM, no less than 10 µM and “+ (ΔTm<10° C.)”.
For `COc1cc(CN(Cc2cn(C3CC3)c3cc(N4CCN(C)CC4)c(F)cc3c2=O)[C@H]2CCCN(c3cccnc3)C2)ccn1` [Example 9, 1-cyclopropyl-6-fluoro-3-({[(2-methoxypyridin-4-yl)methyl][(3S)-1-(pyridin-3-yl)piperidin-3-yl]amino}methyl)-7-(4-methylpiperazin-1-yl)-1,4-dihydroquinolin-4-one] the same measures were no more than 1 µM, no more than 1 µM and “++ (ΔTm>10° C.)”.
Regarding `COc1cc(CN(Cc2cn(C)c3ccccc3c2=O)[C@H]2CCCN(c3cccnc3)C2)ccn1` [Example 1, 3-({[(2-methoxypyridin-4-yl)methyl][(3S)-1-(pyridin-3-yl)piperidin-3-yl]amino}methyl)-1-methyl-1,4-dihydroquinolin-4-one], the “TGI (tumor growth inhibition)” value in experiment [4] (2 mg/kg E5Dx3, 11th day) worked out at 52%; in experiment [4] (3 mg/kg E5Dx3, 11th day), 80%. Moreover, the “complete responses (number of mice)” value is 3 in experiment [4] (2 mg/kg E5Dx3, day 42) and 6 in experiment [4] (3 mg/kg E5Dx3, day 42). Further, the results for the “efficacy of dose” value in experiment [4] (2 mg/kg i.v.) and in experiment [4] (3 mg/kg i.v.) were “moderately efficacious dose” and “full efficacious dose”, respectively. Besides, the half-maximal effective concentration (EC50) in experiment [1] and in experiment [3] was no more than 1 µM throughout. Moreover, the “mice that developed tumors on re-challenge” value was “two of them developed a tumor” in experiment [5] (six mice with complete responses dosed previously at 3 mg/kg, substantial delay in tumor growth) and “none of them developed tumors” in experiment [5] (three mice with complete responses dosed previously at 2 mg/kg). In addition, the “hSTING FTS binding assay (ΔT C.°)” value in experiment [2] is reported as “++ (ΔTm>10° C.)”.
As to `Cc1cc(CN(Cc2cn(C)c3ccccc3c2=O)[C@H]2CCCN(c3cccnc3)C2)cc(C)n1` [Example 38, 3-({[(2,6-dimethylpyridin-4-yl)methyl][(3S)-1-(pyridine-3-yl)piperidin-3-yl]amino}methyl)-1-methyl-1,4-dihydroquinolin-4-one], the EC50 in experiment [1] and in experiment [3] was no less than 10 µM each time. The “hSTING FTS binding assay (ΔT C.°)” value in experiment [2] is “+ (ΔTm<10° C.)”.
On to `Cc1cc(CN(Cc2cn(C)c3cc(N4CCN(C)CC4)ccc3c2=O)[C@H]2CCCN(c3cccnc3)C2)ccn1` [Example 18, 1-methyl-7-(4-methylpiperazin-1-yl)-3-({[(2-methylpyridin-4-yl)methyl][(3S)-1-(pyridin-3-yl)piperidin-3-yl]amino}methyl)-1,4-dihydroquinolin-4-one], for which the EC50 in experiment [1] and in experiment [3] was no more than 1 µM throughout. In addition, the “hSTING FTS binding assay (ΔT C.°)” value in experiment [2] is “++ (ΔTm>10° C.)”.
Take `Cc1cc(CN(Cc2cn(C)c3ccccc3c2=O)[C@H]2CCCN(c3ccncc3Br)C2)ccn1` [Example 15, 3-({[(3S)-1-(3-bromopyridin-4-yl)piperidin-3-yl][(2-methylpyridin-4-yl)methyl]amino}methyl)-1-methyl-1,4-dihydroquinolin-4-one]: the EC50 in experiment [1] and in experiment [3] was 1 to 10 µM throughout. For the same compound, in experiment [2], the “hSTING FTS binding assay (ΔT C.°)” value was “+ (ΔTm<10° C.)”.
As for `Cc1ccc(N2CCC[C@H](N(Cc3ccnc(C)c3)Cc3cn(C4CC4)c4cc(N5CCN[C@H](C)C5)c(F)cc4c3=O)C2)cn1` [Example 46, 1-cyclopropyl-6-fluoro-7-[(3R)-3-methylpiperazin-1-yl]-3-({[(3S)-1-(6-methylpyridin-3-yl)piperidin-3-yl][(2-methylpyridin-4-yl)methyl]amino}methyl)-1,4-dihydroquinolin-4-one], the 50% effective concentration (EC50) in experiment [1] and in experiment [3] was no more than 1 µM in each case. Moreover, the “hSTING FTS binding assay (ΔT C.°)” value in experiment [2] is on record as “++ (ΔTm>10° C.)”.
`COc1nc2c(cc1F)c(=O)c(CN(Cc1ccnc(C)c1)[C@H]1CCCN(c3ccc(C)nc3)C1)cn2C1CC1` [Example 44, 1-cyclopropyl-6-fluoro-7-methoxy-3-({[(3S)-1-(6-methylpyridin-3-yl)piperidin-3-yl][(2-methylpyridin-4-yl)methyl]amino}methyl)-1,4-dihydro-1,8-naphthyridin-4-one]: the concentration for a half-maximal effect (EC50) in experiment [1] and in experiment [3] was no more than 1 µM throughout. Further, the “hSTING FTS binding assay (ΔT C.°)” value in experiment [2] is on record as “++ (ΔTm>10° C.)”.
Consider `Cc1ccc(N2CCC[C@H](N(Cc3ccnc(C)c3)Cc3cn(C4CC4)c4cc(N5CCN(CC(F)F)CC5)c(F)cc4c3=O)C2)cn1` [Example 48, 1-cyclopropyl-7-[4-(2,2-difluoroethyl)piperazin-1-yl]-6-fluoro-3-({[(3S)-1-(6-methylpyridin-3-yl)piperidin-3-yl][(2-methylpyridin-4-yl)methyl]amino}methyl)-1,4-dihydroquinolin-4-one], for which the EC50 in experiment [1] and in experiment [3] was no more than 1 µM throughout. In addition, in experiment [2], the “hSTING FTS binding assay (ΔT C.°)” value is listed as “++ (ΔTm>10° C.)”.
